Molecular target: CDK12 (Homo sapiens, UniProt Q9NYV4)
Assay: Biochemical assay for CDK12 (LANCE TR-FRET, IC50 determination)
Conditions: for IC50: CDK12, IC50 class, read-out: IC50 μM (in range); for CDK12 % Inhibition @ 10 μM / inhibition at 10 µM: compound at 10 μM; for inhibition at 10 µM: read-out: CDK12 % Inhibition @ 10 μM
Protocol: Biochemical Assay for CDK12 (IC50 Determination):
The inhibitory activity of the test compounds was assessed by the LANCE TR-FRET assay, which detects the ATP-dependent phosphorylation of an ULight-4E-BP1 (Thr37/Thr46) substrate peptide (100 nM) by CDK12 (30 nM). Briefly, the enzyme reaction was run in reaction buffer (25 mM HEPES (pH 7.5), 10 mM MgCl2, […], 0.01% Triton x, 1 mM DTT). The assay was performed in 384-well plate format. The end concentration of the ATP substrate was […], and that of the ULight-4E-BP1 (Thr37/Thr46) substrate peptide was 100 nM, and of CDK12 was 30 nM. Pre-incubation of the compound and enzyme was performed for 60 min at room temperature. After 60 min incubation at room temperature, the reaction was terminated by the addition of 40 mM EDTA and 0.5 nM Eu-labeled anti-phospho-eIF4E-binding protein (Thr37/46) antibody in LANCE detection buffer. Time-resolved fluorescence (excitation, 320 nm; emission donor, 615 nm; emission acceptor, 665 nm) was monitored by using 2030 multilabel reader Victor5 (PerkinElmer). The Fluorescence emission of the samples were measured and the ratio was plotted against the compound concentration to generate the dose response curve. The IC50 values were derived by fitting a sigmoidal dose-response curve to a plot of assay readout over inhibitor concentration. All fits were computed with the program Prism 5.03 (Graph Pad Software, San Diego, CA). The % inhibition values at […] were calculated with respect to enzyme activity.

Chain of CDK12 (Q9NYV4 whole entry): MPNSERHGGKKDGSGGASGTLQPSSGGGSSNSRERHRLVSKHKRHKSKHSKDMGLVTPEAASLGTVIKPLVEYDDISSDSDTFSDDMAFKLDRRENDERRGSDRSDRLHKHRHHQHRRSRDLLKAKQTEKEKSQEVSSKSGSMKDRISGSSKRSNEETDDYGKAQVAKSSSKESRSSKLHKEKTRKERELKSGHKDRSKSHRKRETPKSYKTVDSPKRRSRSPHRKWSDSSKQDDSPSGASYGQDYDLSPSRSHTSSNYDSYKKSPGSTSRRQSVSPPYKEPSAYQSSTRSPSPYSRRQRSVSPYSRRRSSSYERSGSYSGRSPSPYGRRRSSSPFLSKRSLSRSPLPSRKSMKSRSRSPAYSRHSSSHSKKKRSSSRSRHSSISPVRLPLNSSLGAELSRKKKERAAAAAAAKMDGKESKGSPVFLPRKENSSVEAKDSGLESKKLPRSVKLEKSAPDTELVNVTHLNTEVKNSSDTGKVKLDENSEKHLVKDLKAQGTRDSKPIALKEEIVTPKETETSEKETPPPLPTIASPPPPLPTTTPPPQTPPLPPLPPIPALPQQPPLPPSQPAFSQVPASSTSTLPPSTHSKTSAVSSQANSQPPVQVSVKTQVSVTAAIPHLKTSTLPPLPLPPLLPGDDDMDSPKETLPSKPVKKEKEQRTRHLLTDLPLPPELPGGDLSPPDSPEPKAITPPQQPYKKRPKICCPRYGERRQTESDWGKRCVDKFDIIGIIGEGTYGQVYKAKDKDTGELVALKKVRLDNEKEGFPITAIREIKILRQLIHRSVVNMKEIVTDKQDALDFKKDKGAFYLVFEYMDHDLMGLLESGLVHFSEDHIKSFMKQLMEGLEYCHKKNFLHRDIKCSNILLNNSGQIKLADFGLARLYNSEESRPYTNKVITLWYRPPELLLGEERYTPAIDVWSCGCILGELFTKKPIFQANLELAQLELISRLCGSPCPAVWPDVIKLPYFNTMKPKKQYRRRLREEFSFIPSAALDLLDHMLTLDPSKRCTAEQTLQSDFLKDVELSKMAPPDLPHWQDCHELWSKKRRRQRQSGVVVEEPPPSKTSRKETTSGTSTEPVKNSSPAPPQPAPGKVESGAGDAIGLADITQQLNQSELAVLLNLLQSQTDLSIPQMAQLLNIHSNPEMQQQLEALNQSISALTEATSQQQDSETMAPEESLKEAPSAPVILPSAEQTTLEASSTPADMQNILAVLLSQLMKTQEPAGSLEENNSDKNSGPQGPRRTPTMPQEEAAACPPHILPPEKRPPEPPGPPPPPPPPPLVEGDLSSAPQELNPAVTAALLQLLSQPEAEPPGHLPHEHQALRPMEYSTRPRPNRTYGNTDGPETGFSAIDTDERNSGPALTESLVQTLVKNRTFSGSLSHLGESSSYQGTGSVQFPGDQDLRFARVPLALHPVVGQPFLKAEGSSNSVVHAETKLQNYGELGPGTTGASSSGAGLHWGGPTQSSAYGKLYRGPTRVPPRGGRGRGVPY
Chain of CDK12 (O75909 whole entry partner): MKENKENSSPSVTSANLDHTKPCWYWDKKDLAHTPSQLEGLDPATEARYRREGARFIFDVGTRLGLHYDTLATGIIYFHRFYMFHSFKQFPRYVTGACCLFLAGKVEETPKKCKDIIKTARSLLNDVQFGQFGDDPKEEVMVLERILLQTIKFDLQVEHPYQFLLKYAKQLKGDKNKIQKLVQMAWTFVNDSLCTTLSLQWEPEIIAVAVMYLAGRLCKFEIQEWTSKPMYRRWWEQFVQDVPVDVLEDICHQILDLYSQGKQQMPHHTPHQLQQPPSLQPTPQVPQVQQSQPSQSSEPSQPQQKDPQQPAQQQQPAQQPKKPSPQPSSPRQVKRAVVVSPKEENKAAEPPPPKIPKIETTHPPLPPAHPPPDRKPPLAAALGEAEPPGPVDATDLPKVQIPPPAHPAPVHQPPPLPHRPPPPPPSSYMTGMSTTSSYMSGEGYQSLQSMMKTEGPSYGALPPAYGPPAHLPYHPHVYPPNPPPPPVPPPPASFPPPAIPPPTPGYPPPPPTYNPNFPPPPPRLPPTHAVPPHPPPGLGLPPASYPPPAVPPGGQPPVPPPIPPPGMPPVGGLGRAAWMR

SMILES | IC50 | CDK12 % Inhibition @ 10 μM | inhibition at 10 µM
N#CN1CCCC(c2ccc(CC(=O)Nc3cc(O[C@H]4CCOC4)c(Cl)cn3)cn2)C1 (single isomer, unassigned) [Compound 97] | 0.01 to 0.1 µM | 96% | 
COc1cc(NC(=O)Cc2ccc(C3=CCCN(C#N)C3)cc2Cl)ncc1Cl [Compound 112, 2-(2-chloro-4-(1-cyano-1,2,5,6-tetrahydropyridin-3-yl)phenyl)-N-(5-chloro-4-methoxypyridin-2-yl)acetamide] | 0.01 to 0.1 µM |  | 90%
COc1cc(NC(=O)Cc2ccc(-c3cc(OC4CCN(C)C4)cc(C#N)n3)nc2)ncc1Cl (stereo not shown) [Compound 171, N-(5-chloro-4-methoxypyridin-2-yl)-2-(6′-cyano-4′-((1-methylpyrrolidin-3-yl)oxy)-[2,2′-bipyridin]-5-yl)acetamide] | < 0.01 µM |  | 83%
COc1cc(NC(=O)Cc2ccc(C3=CCN(C#N)C(C)C3)nc2)ncc1Cl (single isomer, unassigned) [Compound 66, N-(5-chloro-4-methoxypyridin-2-yl)-2-(1′-cyano-2′-methyl-1′,2′,3′,6′-tetrahydro-[2,4′-bipyridin]-5-yl)acetamide] | 0.01 to 0.1 µM |  | 88%
CN1CCCC1COc1cc(NC(=O)Cc2ccc(C3=CCN(C#N)CC3)nc2)ncc1Cl (stereo not shown) [Compound 54, N-(5-chloro-4-((1-methylpyrrolidin-2-yl)methoxy)pyridin-2-yl)-2-(1′-cyano-1′,2′,3′,6′-tetrahydro-[2,4′-bipyridin]-5-yl)acetamide] | > 0.1 µM |  | 77%
CNC(=O)C(C)Oc1cc(NC(=O)Cc2ccc(C3CCCN(C#N)C3)nc2)ncc1Cl (single isomer, unassigned) [Compound 88, 2-((5-chloro-2-(2-(6-(1-cyanopiperidin-3-yl)pyridin-3-yl)acetamido)pyridin-4-yl)oxy)-N-methylpropanamide] | > 0.1 µM | 79% | 
CN(C)c1cc(NC(=O)Cc2ccc(C3=CCCN(C#N)C3)nc2)ncc1Cl [Compound 109, N-(5-chloro-4-(dimethylamino)pyridin-2-yl)-2-(1′-cyano-1′,2′,5′,6′-tetrahydro-[2,3′-bipyridin]-5-yl)acetamide] | 0.01 to 0.1 µM |  | 89%
CNC(=O)C(C)Oc1cc(NC(=O)Cc2ccc(C3CCCN(C#N)C3)nc2)ncc1Cl (single isomer, unassigned) [Compound 91, 2-((5-chloro-2-(2-(6-(1-cyanopiperidin-3-yl)pyridin-3-yl)acetamido)pyridin-4-yl)oxy)-N-methylpropanamide] | 0.01 to 0.1 µM | 95% | 
CC1(C)CCC(Oc2cc(NC(=O)Cc3ccc(C4=CCN(C#N)CC4)nc3)ncc2Cl)CN1 (stereo not shown) [Compound 138, N-(5-chloro-4-((6,6-dimethylpiperidin-3-yl)oxy)pyridin-2-yl)-2-(1′-cyano-1′,2′,3′,6′-tetrahydro-[2,4′-bipyridin]-5-yl)acetamide] | > 0.1 µM |  | 80%
COc1cc(NC(=O)Cc2ccc(-c3ccnc(C#N)c3)nc2)ncc1Cl [Compound 142, N-(5-chloro-4-methoxypyridin-2-yl)-2-(2′-cyano-[2,4′-bipyridin]-5-yl)acetamide] | 0.01 to 0.1 µM |  | 
COc1cc(NC(=O)Cc2ccc(-c3cc(N4CCC(C)(O)CC4)cc(C#N)n3)nc2)ncc1Cl [Compound 192, N-(5-chloro-4-methoxypyridin-2-yl)-2-(6′-cyano-4′-(4-hydroxy-4-methylpiperidin-1-yl)-[2,2′-bipyridin]-5-yl)acetamide] | 0.01 to 0.1 µM |  | 88%
COc1cc(NC(=O)Cc2ccc(N3CCN(C#N)CC3)nc2)ncc1Cl [Compound 134, N-(5-chloro-4-methoxypyridin-2-yl)-2-(6-(4-cyanopiperazin-1-yl)pyridin-3-yl)acetamide] | 0.01 to 0.1 µM |  | 82%
N#CN1CCCC(c2ccc(CC(=O)Nc3cc(O[C@H]4CCOC4)c(Cl)cn3)cn2)C1 (single isomer, unassigned) [Compound 96] | > 0.1 µM |  | 91%
CN1CCC[C@H](Oc2cc(NC(=O)Cc3ccc(C4CCN(C#N)CC4)nc3)ncc2Cl)C1 [Compound 125, (S)-N-(5-chloro-4-((1-methylpiperidin-3-yl)oxy)pyridin-2-yl)-2-(6-(1-cyanopiperidin-4-yl)pyridin-3-yl)acetamide] | > 0.1 µM |  | 72%
CC1(C)CC(Oc2cc(NC(=O)Cc3ccc(C4=CCN(C#N)CC4)nc3)ncc2Cl)CCN1 (stereo not shown) [Compound 139, N-(5-chloro-4-((2,2-dimethylpiperidin-4-yl)oxy)pyridin-2-yl)-2-(1′-cyano-1′,2′,3′,6′-tetrahydro-[2,4′-bipyridin]-5-yl)acetamide] | 0.01 to 0.1 µM |  | 95%
CNC(=O)C(C)Oc1cc(NC(=O)Cc2ccc(C3=CCN(C#N)CC3)nc2)ncc1Cl (single isomer, unassigned) [Compound 3, 2-((5-chloro-2-(2-(1′-cyano-1′,2′,3′,6′-tetrahydro-[2,4′-bipyridin]-5-yl)acetamido)pyridin-4-yl)oxy)-N-methylpropanamide] | < 0.01 µM |  | 84%
CN1CCC(Oc2cc(NC(=O)Cc3ccc(C4=CCN(C#N)CC4)nc3)ncc2Cl)C1 (stereo in doubt) [Compound 30, (S)-N-(5-chloro-4-((1-methylpyrrolidin-3-yl)oxy)pyridin-2-yl)-2-(1′-cyano-1′,2′,3′,6′-tetrahydro-[2,4′-bipyridin]-5-yl)acetamide] | 0.01 to 0.1 µM |  | 82%
N#CN1CCCC(c2ccc(CC(=O)Nc3cc(O[C@@H]4CCOC4)c(Cl)cn3)cn2)C1 (single isomer, unassigned) [Compound 93] | 0.01 to 0.1 µM |  | 73%
COc1cc(NC(=O)Cc2ccc(-c3ccc(C#N)cc3)nc2)ncc1Cl [Compound 188, N-(5-chloro-4-methoxypyridin-2-yl)-2-(6-(4-cyanophenyl)pyridin-3-yl)acetamide] | > 0.1 µM |  | 65%
N#CN1CCC=C(c2ccc(CC(=O)Nc3ccc(C4CC4)cn3)cn2)C1 [Compound 106, 2-(1′-cyano-1′,2′,5′,6′-tetrahydro-[2,3′-bipyridin]-5-yl)-N-(5-cyclopropylpyridin-2-yl)acetamide] | < 0.01 µM |  | 90%

Second part, the molecule after the results:

IC50 | CDK12 % Inhibition @ 10 μM | inhibition at 10 µM | SMILES
0.01 to 0.1 µM |  | 86% | CN1CCC(Oc2cc(NC(=O)Cc3ccc(C4=CCN(C#N)CC4)nc3)ncc2Cl)C1 (stereo in doubt) [Compound 29, (R)-N-(5-chloro-4-((1-methylpyrrolidin-3-yl)oxy)pyridin-2-yl)-2-(1′-cyano-1′,2′,3′,6′-tetrahydro-[2,4′-bipyridin]-5-yl)acetamide]
< 0.01 µM |  | 84% | COc1cc(NC(=O)Cc2ccc(-c3cncc(C#N)n3)nc2)ncc1Cl [Compound 157, N-(5-chloro-4-methoxypyridin-2-yl)-2-(6-(6-cyanopyrazin-2-yl)pyridin-3-yl)acetamide]
0.01 to 0.1 µM |  | 89% | COc1cc(NC(=O)Cc2ccc(-c3cc(O[C@H]4CCOC4)cc(C#N)n3)nc2)ncc1Cl [Compound 196, (S)-N-(5-chloro-4-methoxypyridin-2-yl)-2-(6′-cyano-4′-((tetrahydrofuran-3-yl)oxy)-[2,2′-bipyridin]-5-yl)acetamide]
0.01 to 0.1 µM |  | 92% | COc1cc(NC(=O)Cc2ccc(-c3cnc(C#N)nc3)nc2)ncc1Cl [Compound 141, N-(5-chloro-4-methoxypyridin-2-yl)-2-(6-(2-cyanopyrimidin-5-yl)pyridin-3-yl)acetamide]
0.01 to 0.1 µM |  | 90% | N#CN1CCCC(c2ccc(CC(=O)Nc3cc(O[C@H]4CCOC4)c(Cl)cn3)cn2)C1 (stereo partly drawn) [Compound 95, N-(5-chloro-4-(((S)-tetrahydrofuran-3-yl)oxy)pyridin-2-yl)-2-(6-(1-cyanopiperidin-3-yl)pyridin-3-yl)acetamide]
0.01 to 0.1 µM |  | 79% | CNC(=O)[C@H](C)Oc1cc(NC(=O)Cc2ccc(-c3cnc(C#N)nc3)nc2)ncc1Cl [Compound 151, (S)-2-((5-chloro-2-(2-(6-(2-cyanopyrimidin-5-yl)pyridin-3-yl)acetamido)pyridin-4-yl)oxy)-N-methylpropanamide]
0.01 to 0.1 µM |  | 94% | COc1cc(NC(=O)Cc2ccc(-c3cc(N4CCN(C)CC4)cc(C#N)n3)nc2)ncc1Cl [Compound 191, N-(5-chloro-4-methoxypyridin-2-yl)-2-(6′-cyano-4′-(4-methylpiperazin-1-yl)-[2,2′-bipyridin]-5-yl)acetamide]
< 0.01 µM | 92% |  | N#CN1CCC=C(c2ccc(CC(=O)Nc3cc(OC4CCCOC4)c(Cl)cn3)cn2)C1 (single isomer, unassigned) [Compound 45, N-(5-chloro-4-((tetrahydro-2H-pyran-3-yl)oxy)pyridin-2-yl)-2-(1′-cyano-1′,2′,5′,6′-tetrahydro-[2,3′-bipyridin]-5-yl)acetamide]

From patent US20260000692A1, “Substituted N-(Pyridin-2-yl)Acetamide Derivatives as CDK12/13 Inhibitors” (Aurigene Oncology Limited, priority 2022, published 2026)
